Data from patent US20230075822A1, “USE OF CASTALAGIN OR ANALOGS THEREOF FOR ANTI-CANCER EFFICACY AND TO INCREASE THE RESPONSE TO IMMUNE CHECKPOINT INHIBITORS” (THE ROYAL INSTITUTION FOR THE ADVANCEMENT OF …, priority 2020, published 2023).

System: MCA-205 sarcoma
Test: Subcutaneous MCA-205 sarcoma tumor model (anti-PD-1 sensitive), SPF-reared mice
Format: in vivo, C57BL/6 mice
Settings: 0.85 mg/kg per mouse daily oral gavage; in contrast to castalagin
Protocol: FIG. 1A is a schematic of the protocol used to study the effect of a Camu camu extract (CC) alone and additive effect when combined to anti-PD-1 therapy in a murine tumor model sensitive to anti-PD-1 therapy. Syngeneic C57BL/6 mice were implanted with 0.8×10^6 MCA-205 sarcoma, subcutaneously and treated intraperitoneally (i.p.) when tumors reached 20 to 35 mm^2 in size with anti-PD-1 mAb (250 μg/mouse; clone RMP1-14,) or isotype control (clone 2A3) with or without daily oral gavage with 200 mg/kg of [NT] Powder from SunFood). Murine studies. All animal studies were approved by the Institutional Animal Care Committee (CIPA) and carried out in compliance with the Canadian Council on Animal Care guidelines. Murine experiments were conducted using seven-week-old female C57BL/6 mice, obtained from Charles River, Canada. Germ-free female C57BL/6 mice were purchased from the International Microbiome Centre Germ-Free Facility (University of Calgary, Canada) and maintained at the CR-CHUM Germ-Free Facility. Cell culture, reagents and tumor cell lines. MCA-205 fibrosarcoma cells and E0771 mammary adenocarcinoma cells, class I MHC H-2b syngeneic cell lines for C57BL/6 mice, were used for this study. MCA-205 cells were cultured at 37° C. in the presence of 5% CO2 in Roswell Park Memorial Institute (RPMI) 1640 (Gibco-lnvitrogen) containing 10% Fetal bovine serum (FBS) (Wisent), 2 mM L-glutamine (Wisent), 100 IU/ml penicillin/streptomycin (Wisent), 1 mM sodium pyruvate (Wisent) and MEM non-essential amino acids (Gibco-lnvitrogen). E0771 cells were cultured at 37° C. in the presence of 5% CO2 in Dulbecco's Modified Eagle's Medium (DMEM) (Gibco-lnvitrogen) containing 10% FBS (Wisent), 2 mM L-glutamine, 100 IU/ml penicillin/streptomycin (Wisent), 1 mM sodium pyruvate (Wisent). Subcutaneous model of MCA-205 sarcoma and E0771 breast cancer. Syngeneic C57BL/6 mice were implanted with 0.8×10^6 MCA-205 or 0.5×10^6 E0771 subcutaneously. When tumors reached 20 to 35 mm^2 in size, mice were treated four times (or two times for flow cytometry analysis, see section below) intraperitoneally (i.p.) every three day with anti-PD-1 monoclonal antibody (mAb) (250 μg/mouse; clone RMP1-14, BioXcell) or isotype control (clone 2A3, BioXcell). Upon treatment initiation, mice received a daily oral gavage with the following products: Myrciaria dubia, [NT] raw extract (Sunfood) (200 mg/kg per mouse), fractions from the extraction round 1 (P, INT, NP, Insol) (40.18 mg/kg per mouse), fractions from the extraction round 2 (P1, P2, P3 and P4) (equivalent to fraction P dose of 40.18 mg/kg per mouse), […] (extracted from CC, see isolation process below) (0.85 mg/kg per mouse), ellagic acid (0.85 mg/kg per mouse) (Sigma-Aldrich), urolithin A (0.85 mg/kg per mouse) (Sigma-Aldrich), […] (0.5 mg/kg per mouse) (PhytoProof®, Sigma-Aldrich) and castalagin at different concentration: 1/8, 1/6, 1/4, 1/2 of the standard concentration, at the standard concentration (0.85 mg/kg per mouse), 1.5-fold (1.25 mg/kg per mouse) and three-fold increase concentration (2.55 mg/kg per mouse) (PhytoProof©, Sigma-Aldrich or isolated from food grade oak, see isolation process below). In the control group mice received daily oral gavage with water (100 μL) Tumor area was routinely monitored every three days by means of a caliper. In the depletion experiments, we used the anti-CD8 mAb (150 μg/mouse; clone 53-6.7, BioXcell) or isotype control (clone 2A3, BioXcell.

Row | SMILES | antitumor effect (tumor size at sacrifice)
1 | O=c1oc2c(O)c(O)cc3c(=O)oc4c(O)c(O)cc1c4c23 [ellagic acid, reference compound] | no antitumor effects were observed
2 | O=c1oc2cc(O)ccc2c2ccc(O)cc12 [urolithin A, reference compound] | no antitumor effects were observed
3 | O=C1OC[C@H]2OC(=O)c3cc(O)c(O)c(O)c3-c3c(O)c(O)c(O)c4c3C(=O)O[C@H]([C@H]3OC(=O)c5c-4c(O)c(O)c(O)c5[C@H]3O)[C@@H]2OC(=O)c2cc(O)c(O)c(O)c2-c2c1cc(O)c(O)c2O [vescalagin, reference compound] | no antitumor effects were observed
